Assay results as given in patent publication US20240317758A1 (Halia Therapeutics, Inc., priority 2021, published 2024).

Target: T1, full-length recombinant human NEK7 (Homo sapiens, UniProt Q8TDX7)
T1 construct: full-length recombinant human NEK7; GST (N); purchased SignalChem NO9-10G; host or cells: Sf9 insect cells (baculovirus)
Test: NEK7 enzymatic assay
Assay type: biochemical
Conditions: recombinant human NEK7, casein substrate, radiolabelled ATP
Description: Casein substrate (from bovine milk, hydrolyzed and partially dephosphorylated mixture of α, β and κ caseins, obtained from Sigma Aldrich, catalogue #C4765, diluted in distilled water to a final concentration of 1 mg/mL) and full-length recombinant human NEK7 (expressed by baculovirus in Sf9 insect cells using a N-terminal GST tag, obtained from SignalChem, catalogue #NO9-10G, 0.1 μg/μL) were mixed in assay buffer (20 mM Hepes pH 7.5, 10 mM MgCl2, 1 mM EGTA, 0.02% Brij35, 0.02 mg/ml BSA, 0.1 mM Na3VO4, 2 mM DTT, 1% DMSO). Compounds of interest (serial 3-fold dilution in DMSO from 10 μM to 0.5 nM) or vehicle (1% DMSO) were dispensed into the kinase reaction mixture by Acoustic technology (Echo550; nanoliter range). After incubation at room temperature for 20 minutes, the kinase reaction was initiated by addition of [^33P]-ATP (specific activity 10 μCi/μl) and the mixture was incubated at room temperature for 2 hours. The reaction was then stopped by spotting the reaction mixture on strips of phosphocellulose P81 paper. Following washing, the radioactivity of the P81 paper was measured and kinase activity data were expressed as the percent remaining kinase activity in test samples compared to vehicle reactions. IC50 values and curve fits were obtained using Prism (GraphPad Software).
Casein substrate (from bovine milk, hydrolyzed and partially dephosphorylated mixture of α, β and κ caseins, obtained from Sigma Aldrich, catalogue #C4765, diluted in distilled water to a final concentration of 1 mg/mL, assay concentration 20 μM) and full-length recombinant human Nek7 (expressed by baculovirus in Sf9 insect cells using a N-terminal GST tag, obtained from SignalChem, catalogue #NO9-10G, 0.1 μg/μL, assay concentration 70 nM) were mixed in assay buffer (20 mM Hepes pH 7.5, 10 mM MgCl2, 1 mM EGTA, 0.02% Brij35, 0.02 mg/ml BSA, 0.1 mM […], 2 mM DTT, 1% DMSO). Compounds of interest (in DMSO, serial 3-fold dilution from 10 μM to 0.5 nM) or control (1% DMSO) were dispensed into the kinase reaction mixture by Acoustic technology (Echo550; nanoliter range). After incubation at room temperature for 20 minutes, the kinase reaction was initiated by addition of [^32P]-ATP (Specific activity 10 μCi/μl) and the mixture was incubated at room temperature for 2 hours. The reaction was then stopped by spotting the reaction mixture on strips of phosphocellulose P81 paper. Following washing, the radioactivity of the P81 paper was measured and kinase activity data were expressed as the percent remaining kinase activity in test samples compared to vehicle (dimethyl sulfoxide) reactions. IC50 values and curve fits were obtained using Prism (GraphPad Software).

T1 sequence (Q8TDX7 whole entry): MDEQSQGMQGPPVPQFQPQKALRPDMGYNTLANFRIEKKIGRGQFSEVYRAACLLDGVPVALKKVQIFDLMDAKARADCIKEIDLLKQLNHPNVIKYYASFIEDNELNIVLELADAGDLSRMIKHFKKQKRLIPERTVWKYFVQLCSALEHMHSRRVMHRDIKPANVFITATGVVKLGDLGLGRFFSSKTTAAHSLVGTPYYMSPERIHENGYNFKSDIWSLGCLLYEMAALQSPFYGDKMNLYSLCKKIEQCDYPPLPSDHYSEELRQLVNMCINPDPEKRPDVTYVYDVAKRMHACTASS

| Compound | IC50 |
| --- | --- |
| CN1CCN(Cc2ccc(NC(=O)Nc3ccc(-c4cn(C5CN(C)C5)c5ncnc(N)c45)cc3F)cc2C(F)(F)F)CC1 [Example I-104, 1-(4-(4-amino-7-(1-methylazetidin-3-yl)-7H-pyrrolo[2,3-d]pyrimidin-5-yl)-2-fluorophenyl)-3-(4-((4-methylpiperazin-1-yl)methyl)-3-(trifluoromethyl)phenyl)urea] | < 100 nM |
| CN1CCN(Cc2ccc(NC(=O)Nc3ncc(-c4cn(C5CC5)c5ncnc(N)c45)cc3F)cc2C(F)(F)F)CC1 [Example I-67, 1-(5-(4-amino-7-cyclopropyl-7H-pyrrolo[2,3-d]pyrimidin-5-yl)-3-fluoropyridin-2-yl)-3-(4-((4-methylpiperazin-1-yl)methyl)-3-(trifluoromethyl)phenyl)urea] | 100 to 500 nM |
| Nc1ncnc2c1c(-c1ccc(NC(=O)Nc3ccc(CN4CCCCC4)c(C(F)(F)F)c3)c(F)c1)cn2C1CC1 [Example I-95, 1-(4-(4-amino-7-cyclopropyl-7H-pyrrolo[2,3-d]pyrimidin-5-yl)-2-fluorophenyl)-3-(4-(piperidin-1-ylmethyl)-3-(trifluoromethyl)phenyl)urea] | 500 to 2000 nM |
| CN1CCN(Cc2ccc(NC(=O)Nc3ccc(-c4cn(C5CC5)c5ncnc(N)c45)cc3F)cc2Cl)CC1 [Example I-37, 1-(4-(4-amino-7-cyclopropyl-7H-pyrrolo[2,3-d]pyrimidin-5-yl)-2-fluorophenyl)-3-(3-chloro-4-((4-methylpiperazin-1-yl)methyl)phenyl)urea] | 100 to 500 nM |
| Nc1ncnc2c1c(-c1ccc(NC(=O)Nc3ccc(CN4CCOCC4)c(F)c3)c(F)c1)cn2C1CC1 [Example I-2, 1-(4-(4-amino-7-cyclopropyl-7H-pyrrolo[2,3-d]pyrimidin-5-yl)-2-fluorophenyl)-3-(3-fluoro-4-(morpholinomethyl)phenyl)urea] | > 2000 nM |
| CN1CC2CC1CN2Cc1ccc(NC(=O)Nc2ccc(-c3cn(C4CC4)c4ncnc(N)c34)cc2F)cc1C(F)(F)F (stereo not shown) [Example I-64, 1-(4-(4-amino-7-cyclopropyl-7H-pyrrolo[2,3-d]pyrimidin-5-yl)-2-fluorophenyl)-3-(4-((5-methyl-2,5-diazabicyclo[2.2.1]heptan-2-yl)methyl)-3-(trifluoromethyl)phenyl)urea] | < 100 nM |
| CN1CC2(C1)CN(Cc1ccc(NC(=O)Nc3ccc(-c4cn(C5CC5)c5ncnc(N)c45)cc3F)cc1C(F)(F)F)C2 [Example I-7, 1-(4-(4-amino-7-cyclopropyl-7H-pyrrolo[2,3-d]pyrimidin-5-yl)-2-fluorophenyl)-3-(4-((6-methyl-2,6-diazaspiro[3.3]heptan-2-yl)methyl)-3-(trifluoromethyl)phenyl)urea] | > 2000 nM |
| CNC1CCN(Cc2ccc(NC(=O)Nc3ccc(-c4cn(C5CC5)c5ncnc(N)c45)cc3F)cc2C(F)(F)F)CC1 [Example I-74, 1-(4-(4-amino-7-cyclopropyl-7H-pyrrolo[2,3-d]pyrimidin-5-yl)-2-fluorophenyl)-3-(4-((4-(methylamino)piperidin-1-yl)methyl)-3-(trifluoromethyl)phenyl)urea] | 100 to 500 nM |
| CN1CCN(Cc2c(F)cc(NC(=O)Nc3ccc(-c4cn(C5CC5)c5ncnc(N)c45)cc3F)cc2C(F)(F)F)CC1 [Example I-12, 1-(4-(4-amino-7-cyclopropyl-7H-pyrrolo[2,3-d]pyrimidin-5-yl)-2-fluorophenyl)-3-(3-fluoro-4-((4-methylpiperazin-1-yl)methyl)-5-(trifluoromethyl)phenyl)urea] | < 100 nM |
| CN1CCN(Cc2ccc(NC(=O)Nc3ccc(-c4cn(CCC(=O)O)c5ncnc(N)c45)cc3F)cc2C(F)(F)F)CC1 [Example I-106, 3-(4-amino-5-(3-fluoro-4-(3-(4-((4-methylpiperazin-1-yl)methyl)-3-(trifluoromethyl)phenyl)ureido)phenyl)-7H-pyrrolo[2,3-d]pyrimidin-7-yl)propanoic acid] | < 100 nM |
| Nc1ncnc2c1c(-c1ccc(NC(=O)Nc3ccc(CN4CCC(O)CC4)c(C(F)(F)F)c3)c(F)c1)cn2C1CC1 [Example I-96, 1-(4-(4-amino-7-cyclopropyl-7H-pyrrolo[2,3-d]pyrimidin-5-yl)-2-fluorophenyl)-3-(4-((4-hydroxypiperidin-1-yl)methyl)-3-(trifluoromethyl)phenyl)urea] | 100 to 500 nM |
| CN1CCN(Cc2ccc(NC(=O)Nc3ccc(-c4nn(C5CC5)c5ncnc(N)c45)cn3)cc2C(F)(F)F)CC1 [Example I-30, 1-(5-(4-amino-1-cyclopropyl-1H-pyrazolo[3,4-d]pyrimidin-3-yl)pyridin-2-yl)-3-(4-((4-methylpiperazin-1-yl)methyl)-3-(trifluoromethyl)phenyl)urea] | 100 to 500 nM |
| Cc1cc(NC(=O)Nc2ccc(-c3cn(C4CC4)c4ncnc(N)c34)cc2F)ccc1CN1CCN(C)CC1 [Example I-39, 1-(4-(4-amino-7-cyclopropyl-7H-pyrrolo[2,3-d]pyrimidin-5-yl)-2-fluorophenyl)-3-(3-methyl-4-((4-methylpiperazin-1-yl)methyl)phenyl)urea] | > 2000 nM |

Second part, the compound after the results:

| IC50 | Compound |
| --- | --- |
| 100 to 500 nM | CN1C[C@@H]2CN(Cc3ccc(NC(=O)Nc4ccc(-c5cn(C6CC6)c6ncnc(N)c56)cc4F)cc3C(F)(F)F)C[C@@H]2C1 [Example I-5, 1-(4-(4-amino-7-cyclopropyl-7H-pyrrolo[2,3-d]pyrimidin-5-yl)-2-fluorophenyl)-3-(4-(((3aR,6aS)-5-methylhexahydropyrrolo[3,4-c]pyrrol-2(1H)-yl)methyl)-3-(trifluoromethyl)phenyl)urea] |
| 500 to 2000 nM | CN1CCN(Cc2ccc(NC(=O)Nc3ccc(-c4cn(C5CC5)c5ncnc(N)c45)cc3F)cc2C(F)(F)F)CC12CC2 [Example I-73, 1-(4-(4-amino-7-cyclopropyl-7H-pyrrolo[2,3-d]pyrimidin-5-yl)-2-fluorophenyl)-3-(4-((4-methyl-4,7-diazaspiro[2.5]octan-7-yl)methyl)-3-(trifluoromethyl)phenyl)urea] |
| 100 to 500 nM | CN1CCN(Cc2ccc(NC(=O)Nc3ccc(-c4cn(C5CC5)c5ncnc(N)c45)cc3F)cc2C(F)(F)F)C2(CC2)C1 [Example I-8, 1-(4-(4-amino-7-cyclopropyl-7H-pyrrolo[2,3-d]pyrimidin-5-yl)-2-fluorophenyl)-3-(4-((7-methyl-4,7-diazaspiro[2.5]octan-4-yl)methyl)-3-(trifluoromethyl)phenyl)urea] |
| < 100 nM | CN1CCN(Cc2cc(NC(=O)Nc3ccc(-c4cn(C5CC5)c5ncnc(N)c45)cc3F)cc(C(F)(F)F)c2)CC1 [Example I-93, 1-(4-(4-amino-7-cyclopropyl-7H-pyrrolo[2,3-d]pyrimidin-5-yl)-2-fluorophenyl)-3-(3-((4-methylpiperazin-1-yl)methyl)-5-(trifluoromethyl)phenyl)urea] |
| 100 to 500 nM | CN1CCN(Cc2ccc(NC(=O)Nc3ccc(-c4cn(C5CCC5)c5ncnc(N)c45)cc3F)cc2C(F)(F)F)CC1 [Example I-19, 1-(4-(4-amino-7-cyclobutyl-7H-pyrrolo[2,3-d]pyrimidin-5-yl)-2-fluorophenyl)-3-(4-((4-methylpiperazin-1-yl)methyl)-3-(trifluoromethyl)phenyl)urea] |
| 100 to 500 nM | CN1CC2CCC1CN2Cc1ccc(NC(=O)Nc2ccc(-c3cn(C4CC4)c4ncnc(N)c34)cc2F)cc1C(F)(F)F (stereo not shown) [Example I-9, 1-(4-(4-amino-7-cyclopropyl-7H-pyrrolo[2,3-d]pyrimidin-5-yl)-2-fluorophenyl)-3-(4-((5-methyl-2,5-diazabicyclo[2.2.2]octan-2-yl)methyl)-3-(trifluoromethyl)phenyl)urea] |
